Here are results for 17 compounds from ChEMBL document CHEMBL3400006, “Improving the passive permeability of macrocyclic peptides: Balancing permeability with other physicochemical properties” (Bioorg Med Chem, 2015).

SMILES strings stand for the structures. Converted amounts (≈) assume the structure as drawn. Square brackets hold non-standard residues; d marks the D form. Peptide text beside a SMILES is read from it. 2Pal = N[C@@H](Cc1ccccn1)C(=O)O; 4Pal = N[C@@H](Cc1ccncc1)C(=O)O

The nature of series [1]: Solubility of the compound in phosphate buffer at pH 7.4 by chemi-luminescent nitrogen detection method. The series is classed as physicochemical.
Series [2] in a line: Lipophilicity, log D of the compound at pH 7.4 by ChromlogD analysis. Format: physicochemical. Conditions: buffer.
Series [3] can be described thus: Permeability of the compound at donor pH 7.4 and acceptor pH 7.4 after 3 hrs incubation by PAMPA analysis. Format: ADME. The following applies: read-out: permeability. (In PAMPA a lipid-coated filter parts donor from acceptor wells.)

What is called solubility is the concentration that dissolves in the medium under given conditions. By chromatographic logD is commonly meant lipophilicity estimated from chromatographic retention. Consider `CC(C)C[C@@H]1NC(=O)[C@H](Cc2ccc(O)cc2)NC(=O)[C@@H]2CCCN2C(=O)[C@H](CC(C)C)NC(=O)[C@H](CC(C)C)NC(=O)[C@@H](CC(C)C)NC1=O`, for which the concentration in solution in series [1] (solubility) came to 170 µM (≈ 121 µg/mL). Moreover, the chromatographic logD in series [2] is 5.53.
In the same order, the values of `CC(C)C[C@@H]1NC(=O)[C@@H](CC(C)C)NC(=O)[C@@H](CC(C)C)NC(=O)[C@H](Cc2ccc(O)cc2)NC(=O)[C@H]2CCCN2C(=O)[C@@H](CC(C)C)NC1=O` are 248 µM (≈ 177 µg/mL) and 5.57.
With `CC(C)C[C@@H]1NC(=O)[C@@H](CC(C)C)N(C)C(=O)[C@H](CC(C)C)NC(=O)[C@H](Cc2ccc(O)cc2)NC(=O)[C@@H]2CCCN2C(=O)[C@H](CC(C)C)NC1=O`, the Papp at 3 h in series [3] was 14.4 ×10⁻⁶ cm/s. In series [1], this compound came in with a solubility of 192 µM (≈ 140 µg/mL). The compound further returned a chromatographic logD in series [2] of 6.19.
The corresponding values for `CC(C)C[C@@H]1NC(=O)[C@H](Cc2ccc(O)cc2)NC(=O)[C@@H]2CCCN2C(=O)[C@H](CC(C)C)NC(=O)[C@H](CC(C)C)N(C)C(=O)[C@@H](CC(C)C)N(C)C1=O` are 34.7 ×10⁻⁶ cm/s, 103 µM (≈ 76.3 µg/mL) and 7.52.
On to `CC(C)C[C@@H]1NC(=O)[C@H](Cc2ccc(O)cc2)N(C)C(=O)[C@@H]2CCCN2C(=O)[C@H](CC(C)C)NC(=O)[C@H](CC(C)C)N(C)C(=O)[C@@H](CC(C)C)N(C)C1=O`, for which the concentration in solution in series [1] (solubility) came to 53.7 µM (≈ 40.5 µg/mL). Further, in series [2], the chromatographic logD was determined as 8.32.
For `CC(C)C[C@@H]1NC(=O)[C@H](Cc2ccc(O)cc2)NC(=O)[C@@H]2CCCN2C(=O)[C@H](CC(C)C)NC(=O)[C@](C)(CC(C)C)NC(=O)[C@@H](CC(C)C)NC1=O`, in series [3], the Papp at 3 h was 35 ×10⁻⁶ cm/s. Moreover, the solubility in series [1] was 78 µM (≈ 56.7 µg/mL). In series [2], this compound showed a chromatographic logD of 6.56.
`CC(C)C[C@@H]1NC(=O)[C@@H](CC(C)C)NC(=O)[C@](C)(CC(C)C)NC(=O)[C@H](Cc2ccc(O)cc2)NC(=O)[C@@H]2CCCN2C(=O)[C@H](CC(C)C)NC1=O`: the Papp at 3 h in series [3] came out at 17 ×10⁻⁶ cm/s. In series [1], the solubility came to 148 µM (≈ 108 µg/mL). For the same compound, the chromatographic logD in series [2] amounted to 6.11.
In the same order, the values of `CC(C)C[C@@H]1NC(=O)[C@@H](CC(C)C)NC(=O)[C@H](CC(C)C)NC(=O)[C@@H](CC(C)C)NC(=O)[C@H](Cc2ccc(O)cc2)NC(=O)[C@@H]2CCCN2C(=O)[C@H](CC(C)C)NC1=O` are 13 ×10⁻⁶ cm/s, 51.7 µM (≈ 42.7 µg/mL) and 5.98.
In the same order, the values of `CC(C)C[C@@H]1NC(=O)[C@@H](CC(C)C)NC(=O)[C@H](CC(C)C)NC(=O)[C@@](C)(CC(C)C)NC(=O)[C@H](Cc2ccc(O)cc2)NC(=O)[C@@H]2CCCN2C(=O)[C@H](CC(C)C)NC1=O` are 30.3 ×10⁻⁶ cm/s, 102 µM (≈ 86.1 µg/mL) and 6.65.
`CC(C)C[C@@H]1NC(=O)[C@@H](CC(C)C)NC(=O)[C@H](Cc2ccc(O)cc2)NC(=O)[C@@H]2CCCN2C(=O)[C@H](CC(C)C)NC(=O)[C@](C)(CC(C)C)NC(=O)[C@@H](CC(C)C)NC1=O`: in series [3], the Papp at 3 h stood at 18.5 ×10⁻⁶ cm/s. Moreover, in series [1], the concentration in solution (solubility) came to 122 µM (≈ 103 µg/mL). The compound also came in with a chromatographic logD in series [2] of 6.88.
In the same order, the values of `CC(C)C[C@@H]1NC(=O)[C@@H](CC(C)C)NC(=O)[C@H](CC(C)C)NC(=O)[C@@](C)(CC(C)C)NC(=O)[C@@H](Cc2ccc(O)cc2)NC(=O)[C@@H]2CCCN2C(=O)[C@H](CC(C)C)NC1=O` are 30 ×10⁻⁶ cm/s, 28.5 µM (≈ 23.9 µg/mL) and 7.21.
`CC(C)C[C@@H]1NC(=O)[C@@H](CC(C)C)NC(=O)[C@H]([C@@H](C)O)NC(=O)[C@H](Cc2ccc(O)cc2)NC(=O)[C@@H]2CCCN2C(=O)[C@H](CC(C)C)NC1=O`: in series [3], the Papp at 3 h is under 0.65 ×10⁻⁶ cm/s. Moreover, the concentration in solution in series [1] (solubility) came to 372 µM (≈ 261 µg/mL). Besides, in series [2], the chromatographic logD stood at 4.65.
`CC(C)C[C@@H]1NC(=O)[C@@H](CC(C)C)NC(=O)[C@@H]([C@H](C)O)NC(=O)[C@H](Cc2ccc(O)cc2)NC(=O)[C@@H]2CCCN2C(=O)[C@H](CC(C)C)NC1=O`: the Papp at 3 h in series [3] turned out to be 1.05 ×10⁻⁶ cm/s. In addition, in series [1], the concentration in solution (solubility) came to 371 µM (≈ 260 µg/mL). In addition, the chromatographic logD in series [2] was determined as 4.2.
Compound `CC(C)C[C@@H]1NC(=O)[C@H](CC(C)C)NC(=O)[C@@H](CC(C)C)NC(=O)[C@H](Cc2ccc(O)cc2)NC(=O)[C@@H]2CCCN2C(=O)[C@H](CC(C)C)NC1=O` came in with a solubility in series [1] of 324 µM (≈ 231 µg/mL). In series [2], this compound displayed a chromatographic logD of 5.07.
For `CC(C)C[C@@H]1NC(=O)[C@H](Cc2ccc(O)cc2)NC(=O)[C@@H]2CCCN2C(=O)[C@H](CC(C)C)NC(=O)[C@H](CC(C)C)NC(=O)[C@H](Cc2ccccc2)NC1=O` (cyclo(FLLPYL)), the Papp at 3 h in series [3] turned out to be 20 ×10⁻⁶ cm/s. The concentration in solution in series [1] (solubility) was 206 µM (≈ 153 µg/mL). Also, in series [2], the chromatographic logD was determined as 6.05.
In the same order, the values of `CC(C)C[C@@H]1NC(=O)[C@H](Cc2ccc(O)cc2)NC(=O)[C@@H]2CCCN2C(=O)[C@H](CC(C)C)NC(=O)[C@H](CC(C)C)NC(=O)[C@H](Cc2ccccn2)NC1=O` (cyclo([2Pal]LLPYL)) are 1.35 ×10⁻⁶ cm/s, 485 µM (≈ 363 µg/mL) and 4.75.
Regarding `CC(C)C[C@@H]1NC(=O)[C@H](Cc2ccc(O)cc2)NC(=O)[C@@H]2CCCN2C(=O)[C@H](CC(C)C)NC(=O)[C@H](CC(C)C)NC(=O)[C@H](Cc2ccncc2)NC1=O` (cyclo([4Pal]LLPYL)), in series [3], the Papp at 3 h was under 0.65 ×10⁻⁶ cm/s. In series [1], the concentration in solution (solubility) came to 451 µM (≈ 337 µg/mL). The compound also displayed a chromatographic logD in series [2] of 4.45.
